# Test results from the supplement of paper PMC10307832.
# What was measured:
# Test in all cases: relative viability (nuclei count vs DMSO), 5 days (fraction); higher = more cells survive
# Pictilisib + Luminespib = compound: CS(=O)(=O)N1CCN(Cc2cc3nc(-c4cccc5[nH]ncc45)nc(N4CCOCC4)c3s2)CC1 [Pictilisib] + CCNC(=O)c1noc(-c2cc(C(C)C)c(O)cc2O)c1-c1ccc(CN2CCOCC2)cc1 [Luminespib] (partner 0.01 µM)
# Method in brief: (§1)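 Each reported value is a median over duplicate plates. It expresses relative viability: treated-well nuclei count divided by vehicle-well nuclei count. Lung cancer cell lines in 1536-well plates were dosed by pin tool a day after seeding, alone with one drug or with a fixed anchor-drug dose plus five library-drug doses (not always all listed) in √10 steps, and nuclei were counted after 5 days.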
# Pictilisib + Lapatinib = compound: CS(=O)(=O)N1CCN(Cc2cc3nc(-c4cccc5[nH]ncc45)nc(N4CCOCC4)c3s2)CC1 [Pictilisib] + CS(=O)(=O)CCNCc1ccc(-c2ccc3ncnc(Nc4ccc(OCc5cccc(F)c5)c(Cl)c4)c3c2)o1 [Lapatinib] (partner 2 µM)
# Method in brief: as §1
# Pictilisib + Decitabine = compound: CS(=O)(=O)N1CCN(Cc2cc3nc(-c4cccc5[nH]ncc45)nc(N4CCOCC4)c3s2)CC1 [Pictilisib] + Nc1ncn([C@H]2C[C@H](O)[C@@H](CO)O2)c(=O)n1 [Decitabine] (partner 2 µM)
# Method in brief: as §1
# MK-2206 + Lapatinib = compound: NC1(c2ccc(-c3nc4ccn5c(=O)[nH]nc5c4cc3-c3ccccc3)cc2)CCC1 [MK-2206] + CS(=O)(=O)CCNCc1ccc(-c2ccc3ncnc(Nc4ccc(OCc5cccc(F)c5)c(Cl)c4)c3c2)o1 [Lapatinib] (partner 2 µM)
# Method in brief: as §1
Cell Line,relative viability (Pictilisib + Luminespib; first compound 0.02 µM),relative viability (Pictilisib + Luminespib; first compound 0.06325 µM),relative viability (Pictilisib + Luminespib; first compound 0.6325 µM),relative viability (Pictilisib + Luminespib; first compound 2 µM),relative viability (Pictilisib + Lapatinib; first compound 0.02 µM),relative viability (Pictilisib + Lapatinib; first compound 0.06325 µM),relative viability (Pictilisib + Lapatinib; first compound 0.6325 µM),relative viability (Pictilisib + Lapatinib; first compound 2 µM),relative viability (Pictilisib + Decitabine; first compound 0.02 µM),relative viability (Pictilisib + Decitabine; first compound 0.06325 µM),relative viability (Pictilisib + Decitabine; first compound 0.6325 µM),relative viability (Pictilisib + Decitabine; first compound 2 µM),relative viability (MK-2206 + Lapatinib; first compound 0.01 µM),relative viability (MK-2206 + Lapatinib; first compound 0.03162 µM),relative viability (MK-2206 + Lapatinib; first compound 0.3162 µM),relative viability (MK-2206 + Lapatinib; first compound 1 µM)
201T,1.04,1,0.869,0.576,1.02,1.01,0.969,0.933,0.869,0.83,0.675,0.843,0.988,1.12,1.02,1.12
A549,,,,,0.93,0.906,0.595,0.606,0.256,0.289,0.259,0.22,0.874,0.988,0.932,0.81
A-427,0.864,0.97,0.855,0.724,0.98,1.09,1,0.932,0.579,0.492,0.486,0.453,1.11,1.03,1.09,1.12
ABC-1,0.514,0.583,0.394,0.545,1.08,1.27,1.04,0.631,1.16,1.19,1.07,0.703,1.32,1.29,1.08,1.13
BEN,0.54,0.269,0.275,0.438,0.715,0.755,0.844,0.498,0.659,0.776,0.806,0.554,0.679,0.658,0.697,0.657
CAL-12T,0.452,0.249,0.339,0.143,0.6,0.638,0.653,0.468,,,,,0.682,0.698,0.667,0.454
COR-L23,0.768,0.808,0.562,0.442,1.2,1.08,0.993,0.77,0.443,0.474,0.402,0.372,0.949,1.03,0.92,1.1
COR-L 105,0.987,0.803,0.715,0.466,0.394,0.401,0.338,0.325,0.681,0.656,0.62,0.541,0.382,0.42,0.317,0.335
Calu-6,,,,,1.15,1.19,0.898,0.911,,,,,1.05,1.13,1.09,0.974
ChaGo-K-1,0.663,0.63,0.502,0.499,,,,,0.526,0.51,0.491,0.495,,,,
EBC-1,,,,,0.237,0.208,0.237,0.204,,,,,0.217,0.2,0.174,0.224
EKVX,0.875,0.942,0.833,0.408,0.212,0.215,0.186,0.136,0.318,0.334,0.249,0.195,0.2,0.207,0.17,0.179
EMC-BAC-2,1.23,0.945,0.926,0.656,0.906,0.924,0.735,0.575,0.967,0.978,0.838,0.653,0.859,0.959,0.901,0.805
EPLC-272H,0.213,0.424,0.184,0.207,1.03,1.09,0.658,0.513,0.428,0.371,0.319,0.171,1.06,0.916,,1.33
H3255,0.922,0.796,0.688,0.666,0.237,0.222,0.153,0.124,0.667,0.521,0.466,0.342,0.268,0.224,0.18,0.192
HARA,0.767,0.622,0.113,0.166,0.703,0.724,0.378,0.354,0.605,0.64,0.453,0.307,0.774,0.81,0.567,0.51
HCC-15,0.493,0.346,0.38,0.291,0.936,0.91,0.789,0.692,0.668,0.609,0.406,0.369,0.825,0.9,0.657,0.8
HCC-44,1.11,1.01,0.54,0.344,0.86,0.977,1.06,0.674,0.92,0.958,0.926,0.94,1.01,1.01,1.05,1.07
HCC-78,,,,,0.685,0.749,0.594,0.181,0.604,0.607,0.6,0.402,0.703,0.376,0.88,0.703
HCC-366,,,,,1.04,1,0.665,0.162,0.335,0.304,0.194,0.114,1.05,1.09,1.08,1.16
HCC-827,1.01,0.472,0.224,0.152,0.171,0.209,0.173,0.186,0.258,0.363,0.288,0.311,0.173,0.193,0.205,0.179
HOP-62,1.01,0.906,0.803,0.874,1.15,1.44,0.931,0.742,0.215,0.283,0.267,0.329,0.946,1.12,0.939,1.26
IA-LM,,,,,0.926,0.79,0.678,0.364,,,,,,0.765,0.695,0.438
LC-2-ad,1.17,1.07,0.757,0.607,0.989,1.13,0.506,0.439,0.758,0.836,0.661,0.637,0.944,1.08,1.03,0.542

Cell Line,relative viability (Pictilisib + Luminespib; first compound 0.02 µM),relative viability (Pictilisib + Luminespib; first compound 0.06325 µM),relative viability (Pictilisib + Luminespib; first compound 0.6325 µM),relative viability (Pictilisib + Luminespib; first compound 2 µM),relative viability (Pictilisib + Lapatinib; first compound 0.02 µM),relative viability (Pictilisib + Lapatinib; first compound 0.06325 µM),relative viability (Pictilisib + Lapatinib; first compound 0.6325 µM),relative viability (Pictilisib + Lapatinib; first compound 2 µM),relative viability (Pictilisib + Decitabine; first compound 0.02 µM),relative viability (Pictilisib + Decitabine; first compound 0.06325 µM),relative viability (Pictilisib + Decitabine; first compound 0.6325 µM),relative viability (Pictilisib + Decitabine; first compound 2 µM),relative viability (MK-2206 + Lapatinib; first compound 0.01 µM),relative viability (MK-2206 + Lapatinib; first compound 0.03162 µM),relative viability (MK-2206 + Lapatinib; first compound 0.3162 µM),relative viability (MK-2206 + Lapatinib; first compound 1 µM)
LCLC-97TM1,0.751,0.867,0.442,0.224,0.672,0.93,0.768,0.446,0.244,0.238,0.169,0.18,1.67,1.35,0.697,0.52
LCLC-103H,0.989,0.903,0.606,0.438,,,,,0.705,0.77,0.55,0.617,,,,
LK-2,0.198,0.144,0.152,0.188,0.947,1,0.618,0.405,0.238,0.302,0.197,0.163,1.03,1.05,0.863,0.854
LOU-NH91,0.347,0.338,0.321,0.274,0.787,0.733,0.621,0.525,0.827,0.829,0.771,0.7,0.786,0.739,0.603,0.584
LU99A,0.254,0.228,0.251,0.204,0.98,1.04,0.574,0.372,0.969,0.919,0.901,0.441,1.05,0.871,0.904,0.877
LXF-289,0.687,0.514,0.78,0.344,0.91,0.929,0.925,0.793,0.361,0.4,0.337,0.443,0.907,0.985,0.911,0.901
NCI-H23,0.203,0.219,0.198,0.203,1.17,1.45,0.952,0.496,0.305,0.333,0.309,0.271,0.982,0.98,1.16,1.1
NCI-H322M,0.857,0.763,0.511,0.263,0.57,0.588,0.493,0.423,0.735,0.696,0.656,0.43,0.599,0.634,0.604,0.68
NCI-H358,0.382,0.348,0.161,0.146,0.49,0.503,0.311,0.29,0.199,0.199,0.18,0.115,0.47,0.41,0.394,0.376
NCI-H441,0.307,0.236,0.269,0.221,,,,,0.263,0.234,0.265,0.281,,,,
NCI-H460,0.0289,0.0281,0.0266,0.019,1.08,1.02,0.548,0.118,0.528,0.558,0.301,0.109,0.914,1.3,0.914,0.95
NCI-H520,0.212,0.221,0.223,0.217,0.834,0.864,0.365,0.164,0.492,0.478,0.237,0.168,0.85,0.874,0.415,0.238
NCI-H522,1.01,0.939,0.894,0.788,,,,,0.66,0.609,0.657,0.607,,,,
NCI-H596,0.942,0.92,0.442,0.153,1.1,1.02,0.602,0.367,0.963,1.02,0.756,0.403,1.12,1.11,0.912,0.684
NCI-H647,0.124,0.151,0.265,0.185,1.15,1.11,0.833,0.429,0.308,0.389,0.276,0.236,1.01,1.15,1.06,0.521
NCI-H650,0.759,0.809,0.802,0.483,1.27,0.997,0.798,0.689,0.336,0.297,0.318,0.411,0.985,1.07,0.874,0.721
NCI-H1299,,,,,1.02,1.01,1,1.01,,,,,0.963,0.946,1,1.02
NCI-H1563,0.44,0.513,0.497,0.468,1,0.948,0.696,0.564,,,,,0.843,0.911,0.783,0.711
NCI-H1623,0.452,0.455,0.379,0.303,,,,,,,,,,,,
NCI-H1648,,,,,,,,,0.528,0.469,0.367,0.319,,,,
NCI-H1703,,,,,0.939,1.33,0.405,0.247,,,,,1.24,0.959,0.71,0.571
NCI-H2228,0.12,0.184,0.129,0.121,1.18,1.12,0.586,0.339,,,,,1.12,1.01,0.641,0.373
NCI-H2342,0.669,0.586,0.588,0.365,,,,,0.736,0.672,0.688,0.445,,,,
SW 900,0.183,0.15,0.163,0.158,,,,,0.367,0.524,0.45,0.418,,,,
